Source: patent US11780834B2, “Solid forms of 3-((1R,3R)-1-(2,6-difluoro-4-((1-(3-fluoropropyl)azetidin-3-yl)amino)phenyl)-3-methyl-1,3,4,9-tetrahydro-2H-pyrido[3,4-b]indol-2-yl)-2,2-difluoropropan-1-ol and processes for preparing fused tricyclic compounds comprising a substituted phenyl or pyridinyl moiety, including methods …” (Hoffmann-La Roche Inc., priority 2018, dated 2023)
Structures can show the parent of a compound that is named as a salt. Where two headings read alike, the source gives them in different places.

How the values were obtained:
[1] = Stress stability of solid forms at elevated temperature and humidity (XRPD, impurities); format: physicochemical; conditions: 40° C./75% RH, one month, tartrate
Method: Preliminary stress stability analysis of Compound B Form B. The XRPD patterns of Compound A salts (fumarate and tartrate) exposed to 40° C./75% RH for one month under open conditions.
XRPD of one-month stability sample.

[2] = tested on: LBD of both wild-type and mutant ER; test: Competitive binding to ER ligand-binding domain
ER = ER (Homo sapiens, UniProt P03372); test: ER degradation and ER pathway suppression; format: cell-based; conditions: compared to GDC-0927 and GDC-0810
[3] = tested on: ER-positive breast cancer cell lines; test: Proliferation of ER-positive breast cancer cell lines in vitro; format: cell-based; conditions: multiple ER-positive breast cancer cell lines, including cells engineered to express clinically relevant ER mutations
[4] = Pharmacokinetics after single IV administration; format: in vivo, and monkeys; conditions: rats, dogs, monkeys
[5] = Oral bioavailability in rats and dogs; conditions: rat, dog, in vivo
[6] = Oral bioavailability in monkeys; conditions: monkey, in vivo
[7] = In vitro metabolite identification; format: in vitro ADME
CYP2B6 = biological target: T1, CYP2B6 (Homo sapiens, UniProt P20813); test: CYP2B6 inhibition in human liver microsomes; format: in vitro ADME
T1 construct: from tissue; host or cells: human liver microsomes
T1 sequence (P20813 1-491): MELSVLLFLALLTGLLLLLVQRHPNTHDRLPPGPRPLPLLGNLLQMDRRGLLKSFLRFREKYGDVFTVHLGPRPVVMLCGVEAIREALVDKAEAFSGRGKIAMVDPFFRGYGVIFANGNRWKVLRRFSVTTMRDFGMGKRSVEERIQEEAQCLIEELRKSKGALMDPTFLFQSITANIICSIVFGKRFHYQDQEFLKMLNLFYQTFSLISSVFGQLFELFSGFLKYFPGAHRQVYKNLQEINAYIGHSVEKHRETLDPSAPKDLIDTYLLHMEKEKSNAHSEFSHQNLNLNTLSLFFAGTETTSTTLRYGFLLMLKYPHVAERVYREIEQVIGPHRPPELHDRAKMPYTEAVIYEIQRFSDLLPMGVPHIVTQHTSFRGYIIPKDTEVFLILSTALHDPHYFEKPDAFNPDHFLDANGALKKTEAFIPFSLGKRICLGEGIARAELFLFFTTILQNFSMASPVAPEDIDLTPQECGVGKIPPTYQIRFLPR

CYP2C8 = biological target: T2, CYP2C8 (Homo sapiens, UniProt P10632); test: CYP2C8 inhibition in human liver microsomes; format: in vitro ADME
T2 construct: from tissue; host or cells: human liver microsomes
T2 sequence (P10632 1-490): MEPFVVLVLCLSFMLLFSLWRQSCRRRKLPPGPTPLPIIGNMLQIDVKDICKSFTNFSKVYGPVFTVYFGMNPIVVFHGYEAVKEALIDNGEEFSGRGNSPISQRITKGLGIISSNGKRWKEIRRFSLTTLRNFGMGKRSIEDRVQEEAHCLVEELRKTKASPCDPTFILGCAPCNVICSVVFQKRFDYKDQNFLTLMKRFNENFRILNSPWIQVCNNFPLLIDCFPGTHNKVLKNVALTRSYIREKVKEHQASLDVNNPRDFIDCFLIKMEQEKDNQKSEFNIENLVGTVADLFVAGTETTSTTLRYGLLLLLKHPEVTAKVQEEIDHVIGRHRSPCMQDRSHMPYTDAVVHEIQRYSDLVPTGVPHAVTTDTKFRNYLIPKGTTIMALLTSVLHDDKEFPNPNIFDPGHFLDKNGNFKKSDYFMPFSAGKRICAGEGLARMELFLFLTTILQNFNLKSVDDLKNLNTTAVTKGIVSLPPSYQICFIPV

CYP2C9 = biological target: T3, CYP2C9 (Homo sapiens, UniProt P11712); test: CYP2C9 metabolism dependent inhibition; format: in vitro ADME
T3 construct: from tissue; host or cells: human liver microsomes

CYP = test: In vitro CYP inhibition (human liver microsomes) and induction (human hepatocytes) studies; format: in vitro ADME; conditions: induction in human hepatocytes
[8] = tested on: xenograft models of ER-positive breast cancer
CYP3A4 = CYP3A4 (Homo sapiens, UniProt P08684); conditions: read-out: CYP3A4 inhibition IC50, direct inhibition, human liver microsomes
[9] = female, rat, in vivo, po, 28 days
[10] = monkey, in vivo
[11] = in vivo
Method: (§1) Patients were enrolled in a dose-escalation stage with enrollment in an expansion stage to follow. During the single-agent dose escalation, cohorts were evaluated at escalating dose levels to determine the MTD or maximum administered dose (MAD).
(§2) Continuous once daily dosing was commenced during the treatment period starting on Cycle 1 Day 1.

clinical = conditions: human, in vivo, po
Method: as §1, §2

[12] = Four-week GLP repeat-dose oral toxicity study in female rats
[13] = Four-week GLP repeat-dose oral toxicity study in female monkeys
[14] = female, rat, plasma, po, 100 mg/kg
[15] = female, monkey, plasma, po, 60 mg/kg/day

CYP3A4, sequence (P08684 whole entry): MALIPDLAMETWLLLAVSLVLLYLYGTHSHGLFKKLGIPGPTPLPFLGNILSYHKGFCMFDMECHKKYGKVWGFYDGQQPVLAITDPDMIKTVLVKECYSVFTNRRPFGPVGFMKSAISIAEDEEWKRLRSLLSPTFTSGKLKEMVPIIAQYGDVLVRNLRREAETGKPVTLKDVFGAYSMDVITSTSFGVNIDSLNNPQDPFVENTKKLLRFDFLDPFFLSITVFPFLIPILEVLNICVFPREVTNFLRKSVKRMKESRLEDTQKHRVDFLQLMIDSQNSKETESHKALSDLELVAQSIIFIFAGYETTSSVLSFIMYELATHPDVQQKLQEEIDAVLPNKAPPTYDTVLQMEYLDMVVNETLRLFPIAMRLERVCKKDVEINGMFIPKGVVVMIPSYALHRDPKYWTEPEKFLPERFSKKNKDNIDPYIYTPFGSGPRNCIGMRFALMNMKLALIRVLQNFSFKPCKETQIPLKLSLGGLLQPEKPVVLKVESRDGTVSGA
ER, sequence (P03372 whole entry): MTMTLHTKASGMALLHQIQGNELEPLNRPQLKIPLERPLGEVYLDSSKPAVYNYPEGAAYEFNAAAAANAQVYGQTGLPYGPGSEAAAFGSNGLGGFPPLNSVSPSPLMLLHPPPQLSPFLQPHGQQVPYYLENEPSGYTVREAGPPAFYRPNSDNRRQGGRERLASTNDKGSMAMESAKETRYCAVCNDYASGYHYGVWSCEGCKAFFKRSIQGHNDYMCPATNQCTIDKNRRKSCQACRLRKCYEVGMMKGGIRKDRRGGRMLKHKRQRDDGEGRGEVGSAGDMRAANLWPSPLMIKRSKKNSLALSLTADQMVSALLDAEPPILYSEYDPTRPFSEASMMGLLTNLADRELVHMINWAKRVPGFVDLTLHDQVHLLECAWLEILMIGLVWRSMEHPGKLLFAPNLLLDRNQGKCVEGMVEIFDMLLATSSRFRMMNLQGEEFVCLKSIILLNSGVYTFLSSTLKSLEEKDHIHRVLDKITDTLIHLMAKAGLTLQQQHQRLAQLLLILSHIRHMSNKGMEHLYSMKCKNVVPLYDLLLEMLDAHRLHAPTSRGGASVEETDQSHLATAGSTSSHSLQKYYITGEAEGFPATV
T3 sequence (P11712 whole entry): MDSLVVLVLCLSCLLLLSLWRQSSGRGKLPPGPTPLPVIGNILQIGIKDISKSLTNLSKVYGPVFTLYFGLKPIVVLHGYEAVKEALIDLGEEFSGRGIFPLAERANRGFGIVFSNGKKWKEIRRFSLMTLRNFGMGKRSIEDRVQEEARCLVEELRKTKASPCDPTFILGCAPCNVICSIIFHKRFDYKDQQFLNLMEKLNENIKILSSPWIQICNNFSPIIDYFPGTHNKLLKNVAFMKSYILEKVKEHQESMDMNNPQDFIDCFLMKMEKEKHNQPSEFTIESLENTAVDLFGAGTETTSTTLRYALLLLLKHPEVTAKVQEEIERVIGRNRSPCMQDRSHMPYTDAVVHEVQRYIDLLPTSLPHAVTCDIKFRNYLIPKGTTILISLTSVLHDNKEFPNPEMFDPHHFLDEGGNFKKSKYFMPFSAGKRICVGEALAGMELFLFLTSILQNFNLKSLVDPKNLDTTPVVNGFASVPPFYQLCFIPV

With `C[C@@H]1Cc2c([nH]c3ccccc23)[C@@H](c2c(F)cc(NC3CN(CCCF)C3)cc2F)N1CC(F)(F)CO` [Compound B, 3-((1R,3R)-1-(2,6-difluoro-4-((1-(3-fluoropropyl)azetidin-3-yl)amino)phenyl)-3-methyl-1,3,4,9-tetrahydro-2H-pyrido[3,4-b]indol-2-yl)-2,2-difluoropropan-1-ol tartrate] the “Solid form (XRPD) after stress stability” value ([1]; open) was “did not change”, the “Impurities after stress stability” value ([1]; listed as tartrate salt) was “lacked the impurities” and the “Potency of competitive binding to ER LBD” value [2] was “nanomolar potency”. For the same compound, the “ER degradation & ER pathway suppression” value (ER) was “superior”, the Inhibition of proliferation [3] was “potently inhibits” and the half-life ([4]; rat, dog, monkey, in vivo, read-out: Terminal elimination half-life) was 7 to 24 h. For the same compound, the Clearance [4] was “low to moderate”, the Volume of distribution [4] was “large” and the bioavailability [5] was 41 to 55%. For the same compound, the bioavailability [6] was 17%, the “Major in vitro metabolic pathway” value [7] was “UGT1A4-mediated glucuronidation” and the IC50 (CYP2B6) was 13 µM. For the same compound, the IC50 (CYP2C8) was 21 µM, the “Metabolism dependent inhibition of CYP2C9” value (CYP2C9) was “weak” and the “Potential for drug-drug interactions” value (CYP) was “low-to-moderate”. For the same compound, the “Tolerability of doses in xenograft models” value ([8]; in vivo) was “well tolerated”, the Anti-tumor activity ([8]; including patient-derived xenograft with ESR1 mutation (ER.Y537S)) was “dose-dependent anti-tumor activity” and the “Fold lower dose giving same in vivo efficacy as GDC-0927” value ([8]; vs GDC-0927) was 100 ×. For the same compound, the Efficacious dose range ([8]; xenograft models) was 0.1 to 10 mg/kg/day, the IC50 (CYP3A4; midazolam 1′-hydroxylation) was 6.5 µM and the IC50 (CYP3A4; testosterone 6β-hydroxylation) was 26 µM. The “Severely toxic dose for 10% of animals (STD10)” value [9] was 100 mg/kg, the “Highest non-severely toxic dose” value ([10]; female, po, 28 days) was 60 mg/kg/day and the “Tolerability at high dose” value ([10]; 200 mg/kg) was “not tolerated”. The “Plasma exposure vs dose” value [11] was “increased proportionally”, the “Steady state exposure vs dose” value [11] was “higher than dose proportional” and the half-life (clinical) was about 40 h. For the same compound, the AUC(0-t) [12, 14] was 143000 ng·h/mL, the Cmax [12, 14] was 6560 ng/mL and the “Exposure multiple (AUC) over anticipated human Phase I starting dose at which PLD was observed” value ([12]; rats) was “at least 44 fold”. The Exposure factor ([12]; rats, 10 mg/kg) was 18 fold, the PLD finding ([12]; rats, 10 mg/kg) was “not noted” and the “Increase in systemic exposure with dose” value ([12]; rats, 28-day oral) was “dose proportional”. The MTD at 4 weeks ([13]; female, monkey, in vivo, po) was 60 mg/kg, the AUC(0-t) [13, 15] was 16200 ng·h/mL and the Cmax [13, 15] was 841 ng/mL. The “Exposure multiple (AUC) over anticipated human Phase I starting dose at which PLD was observed” value ([13]; monkeys) was at least 6 fold, the Exposure factor ([13]; monkeys, 20 mg/kg) was 6 fold and the PLD finding ([13]; monkeys, 20 mg/kg) was “limited to minimal changes in the lung”. For the same compound, the “Increase in systemic exposure with dose” value ([13]; monkeys, 28-day oral) was “dose proportional”.
